Source: paper PMC4418176 (Bioorganic & medicinal chemistry letters, 2009)

What was measured:
NTR1 = NTR1 (Homo sapiens, UniProt P30989); test: NTR1 agonist-mediated calcium mobilization assay; assay type: cell-based; conditions: for NTR1 specificity of the observed calcium release (block by NTR1 antagonist 1a): cells pre-incubated with 1 or 10 mM 1a for 15 min at 37 °C, test compound at its EC50, data not shown
NTR1 receptor = conditions: calcium release (FLIPR) assay; cited from earlier work

Sequence of NTR1 (P30989 whole entry, species assumed): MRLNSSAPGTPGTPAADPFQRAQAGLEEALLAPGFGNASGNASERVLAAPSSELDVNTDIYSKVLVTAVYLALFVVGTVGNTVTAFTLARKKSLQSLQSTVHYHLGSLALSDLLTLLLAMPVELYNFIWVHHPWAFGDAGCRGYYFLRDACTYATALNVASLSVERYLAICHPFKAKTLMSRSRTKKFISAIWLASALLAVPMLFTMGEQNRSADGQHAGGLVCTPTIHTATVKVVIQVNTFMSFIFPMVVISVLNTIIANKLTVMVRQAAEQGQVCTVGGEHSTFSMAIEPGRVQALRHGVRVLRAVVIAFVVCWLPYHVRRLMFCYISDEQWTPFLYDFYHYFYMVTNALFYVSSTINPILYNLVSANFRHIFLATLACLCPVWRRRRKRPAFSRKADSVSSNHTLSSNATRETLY

| Compound | NTR1 specificity of the observed calcium release (block by NTR1 antagonist 1a) (NTR1) | NTR1 receptor partial agonist activity (NTR1 receptor) | other results |
| --- | --- | --- | --- |
| COc1cccc(OC)c1-c1cc(C(=O)N[C@H](C(=O)O)C2CCCCC2)nn1-c1ccnc2cc(Cl)ccc12 [Compound 1b, reference compound] |  |  | Screen (10 μM), percent stimulation relative to NT (NTR1; 10 μM, in triplicate, CHO-K1 cells stably expressing NTR1, NA = not active): did not stimulate calcium release |
| COc1cccc(OC)c1-c1cc(C(=O)N[C@@H](CC(C)C)C(=O)O)nn1-c1ccnc2cc(Cl)ccc12 [Compound 3a] | demonstrated by blocking with the NTR1 antagonist (1a) |  | Emax (NTR1; ± SEM, relative to neurotensin): 51 %NT |
| COc1cccc(OC)c1-c1cc(C(=O)N[C@H](CC(C)C)C(=O)O)nn1-c1ccnc2cc(Cl)ccc12 [Compound 3b] | demonstrated by blocking with the NTR1 antagonist (1a) |  |  |
| COc1cccc(OC)c1-c1cc(C(=O)N[C@@H](CC(C)C)C(=O)O)nn1-c1cccc2ccccc12 [Compound 5] |  |  | agonist activity when screened (NTR1): no agonist activity |
| CC(C)CC(NC(=O)OCC1c2ccccc2-c2ccccc21)C(=O)O (stereo not shown) [Compound 6] |  | partial agonist activity |  |
| CC(C)C[C@H](NC(=O)Cn1ccc2cc(NS(=O)(=O)c3cccc4cccnc34)ccc21)C(=O)O [Compound 7] |  | partial agonist activity |  |
